Assay results from BindingDB's records for doi:10.1021/jm00387a019 (1987).

target: Voltage-dependent L-type calcium channel subunit alpha-1C (Sus scrofa); assay: Inhibition of [3H]nitrendipine binding to L-type calcium channel dihydropyridine site of porcine cardiac sarcolemma membrane vesicles

Compound | Ki
CCOC(=O)C1=C(C)N=C(C)C(=C(O)OCC)C1c1cc([N+](=O)[O-])ccc1SC (centres undefined) | 80 nM
CCOC(=O)[C@H]1[C@H]2/C(=C(\O)OCC)C(C)=N[C@]1(C)Sc1cc([N+](=O)[O-])ccc12 | 5000 nM
CCOC(=O)[C@@H]1[C@H]2/C(=C(\O)OCC)C(C)=N[C@]1(C)Sc1ccccc12 | 500 nM
CCOC(=O)[C@H]1[C@H]2/C(=C(\O)OCC)C(C)=N[C@]1(C)Sc1ccc([N+](=O)[O-])cc12 | 650 nM
CCOC(=O)[C@H]1[C@H]2/C(=C(\O)OCC)C(C)=N[C@]1(C)Sc1c2cccc1[N+](=O)[O-] | 250 nM
CCOC(=O)[C@@H]1[C@H]2/C(=C(\O)OCC)C(C)=N[C@]1(C)Sc1ccc([N+](=O)[O-])cc12 | 30 nM
CCOC(=O)[C@@H]1[C@H]2/C(=C(\O)OCC)C(C)=N[C@]1(C)Sc1cc([N+](=O)[O-])ccc12 | 3000 nM
CCOC(=O)[C@H]1[C@H]2/C(=C(\O)OCC)C(C)=N[C@]1(C)Sc1ccccc12 | 5000 nM
CCOC(=O)[C@@H]1[C@H]2/C(=C(\O)OCC)C(C)=N[C@]1(C)Sc1c2cccc1[N+](=O)[O-] | 6000 nM
